Laboratory results as given in patent publication US12472259B2, “PKC inhibitors for the treatment of septic cholestasis with polymethine dye targeting” (SMARTDYELIVERY GMBH, priority 2018, dated 2025).

Legend:
[1] = tested on: male C57/BL6 mice, PCI model; assay: Survival rate in cholestasis model under septic conditions, peritoneal contamination and infection (PCI); format: in vivo; conditions: 4 mg/kg body weight
Protocol: In order to mimic the septic cholestasis, a systemic inflammation was induced using the well-established peritoneal contamination and infection (PCI) model. In this model, a human faeces suspension is applied intraperitoneally (i.p.) and rapidly triggers sepsis with liver dysfunction.
For each batch of human stool, the dose is titrated carefully for a survival between 0% and 20% within two weeks.
To find the adequate dose of stool, different doses were tested. 6 h after i.p. application of the stool, 8-12 weeks old C57/BL6 mice or FVB/N mice were treated with the nanoparticles or the free drug respectively.
A systemic infection/sepsis with organ failure was induced in male C57/BL6 mice by using the PCI model. For this purpose, a human fecal suspension (2.5 μl/g BW for stool batch1 and 6 μl/g for stool batch 2, respectively) was injected intraperitoneally (without anesthesia) with weight adaptation, thus triggering peritonitis with subsequent systemic infection. […] The animals were closely monitored and scored every 6 hours for signs of infection in order to timely. […] With the evaluated dose of 6 μl/g BW stool and additional antibiotic therapy, all mice died within three days, as shown in the Kaplan-Meier-Schatzer diagram (FIG. 11, right panel). […]

[2] = during idelalisib; cited from earlier work
[3] = cited from earlier work

## O=C1NC(=O)/C(=C\c2ccc3nccnc3c2)S1 [AS605240]
[1]
  activity of the free drug alone (dose evaluation, survival): active

## CN(C)CCCn1cc(C2=C(c3c[nH]c4ccccc34)C(=O)NC2=O)c2ccccc21 [BIM-1]
[1]
  activity of the free drug alone (dose evaluation, survival): active

## CC[C@H](Nc1ncnc2[nH]cnc12)c1nc2cccc(F)c2c(=O)n1-c1ccccc1 [idelalisib]
[2]
  risk of developing sepsis as adverse effect compared to placebo: five-fold higher risk

## CO[C@@H]1[C@H](N(C)C(=O)c2ccccc2)C[C@H]2O[C@]1(C)n1c3ccccc3c3c4c(c5c6ccccc6n2c5c31)C(=O)NC4 [midostaurin]
[3]; 16 patients, most commonly from infection (sepsis or pneumonia)
  On-treatment death unrelated to the underlying malignancy: 11%
[3]; patients on midostaurin
  Grade≥3 adverse reactions (fatigue, sepsis, gastrointestinal hemorrhage, pneumonia, diarrhea, febrile neutropenia) reported in: ≥ 5%
  Serious adverse reactions most commonly due to infections and gastrointestinal disorders: 20%
  Serious adverse reactions reported: 68 % of patients
  Treatment discontinuation due to adverse reaction: 21 % of patients
